Laboratory results: patent publication US20020102688A1, “Methods and products for the synthesis of oligosaccharide structures on glycoproteins, glycolipids, or as free molecules, and for the isolation of cloned genetic sequences that determine these structures” (The Regents of the University of Michigan, priority 1990, published 2002)

Legend:
[1] = target: T1, agglutinin from Erythrina cristagalli (ECA) (Erythrina crista-galli, UniProt P83410); test: Hapten inhibition of FITC-ECA binding to L cells (FACS); conditions: FITC-labeled ECA preincubated with hapten
T1 construct: purchased E-Y Labs (San Mateo, Calif.)
T1 sequence (P83410 1-239): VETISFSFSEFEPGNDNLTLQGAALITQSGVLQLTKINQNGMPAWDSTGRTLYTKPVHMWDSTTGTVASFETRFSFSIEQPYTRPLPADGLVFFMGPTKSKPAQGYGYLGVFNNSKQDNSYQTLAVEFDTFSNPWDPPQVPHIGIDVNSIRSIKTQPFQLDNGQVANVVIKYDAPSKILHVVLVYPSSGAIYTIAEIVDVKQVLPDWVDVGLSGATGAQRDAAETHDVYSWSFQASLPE
Description: These would represent potential acceptor molecules for a complementing human (α-1,2)fucosyltransferase activity and would allow the resulting surface-expressed Fucα(1,2)Gal linkages to be detected with anti-H antibody. The agglutinin from Erythrina cristagalli (ECA) was used for this analysis. […] L cells were stained with purified, FITC-labeled ECA, or with FITC-labeled ECA that had been preincubated with the hapten N-acetyllactosamine and were subjected to FACS analysis.

[2] = test system: monoclonal anti-H antibody; test: Hapten inhibition of anti-H antibody binding to mH1-12 cells (indirect immunofluorescence); set-up: species or system mouse; conditions: antibody preincubated with hapten, 20 mM
Description: (§1) Immunofluoroscence was performed on cells plated on 8-well tissue culture chamber slides (Lab-Tek). Cells were plated at a density of 5×10^4/well 24 h prior to analysis. Anti-H and anti-A primary antibodies were diluted in PBS containing bovine serum albumin at 2 mg/ml, to a final concentration of 10 μg/ml. Cell-bound primary antibodies were detected with FITC-conjugated goat anti-mouse IgM, diluted to 40 μg/ml in PBS containing 2 mg/ml bovine serum albumin.
(§2) Hapten Inhibition—Plated cells were washed twice with PBS, and were incubated for 30 min at 4° C. with 100 μl of diluted anti-H antibody, or with 100 μl of diluted antibody containing different oligosaccharide haptens, each at a concentration of 20 mM. The chambers were then washed twice, and 100 μl of FITC-conjugated goat anti-mouse IgM was added. After 30 min at 4° C., the chambers were washed three times with PBS, and the cells were fixed at room temperature for 10 min in 3.7% formaldehyde in PBS. The cells were washed twice with PBS, the chambers were removed, and the slide was mounted in PBS containing 25% glycerol. Cells were examined by fluorescence microscopy using a Zeiss Axiophot photomicroscope equipped with fluorescence epiillumination.

Fuc-TIV = target: T2, Fuc-TIV (Homo sapiens, UniProt P22083); test: Fucosyltransferase assay, extracts of COS-1 cells transfected with pCDNA1-Fuc-TIV; type: biochemical; set-up: expressed in transfected cells; host or cells: COS-1 cells, transient transfection, 1% Triton X-100 extract; conditions: for fucose transfer to acceptor: pCDNA1-Fuc-TIV COS-1 extracts with relatively large activity toward N-acetyllactosamine; for Relative Activity (%) with Fuc-TIV: relative product formation rate, N-acetyllactosamine = 100, acceptor 20 mM (2-fucosyllactose 5 mM), GDP-[14C]fucose 3 μM, transfected COS-1 cell extract; for fucosyltransferase activity with acceptor substrate: standard assay, extracts of pCDNA1-Fuc-TIV transfected COS-1 cells, acceptor 20 mM
T2 sequence (P22083 1-405 isoform P22083-2): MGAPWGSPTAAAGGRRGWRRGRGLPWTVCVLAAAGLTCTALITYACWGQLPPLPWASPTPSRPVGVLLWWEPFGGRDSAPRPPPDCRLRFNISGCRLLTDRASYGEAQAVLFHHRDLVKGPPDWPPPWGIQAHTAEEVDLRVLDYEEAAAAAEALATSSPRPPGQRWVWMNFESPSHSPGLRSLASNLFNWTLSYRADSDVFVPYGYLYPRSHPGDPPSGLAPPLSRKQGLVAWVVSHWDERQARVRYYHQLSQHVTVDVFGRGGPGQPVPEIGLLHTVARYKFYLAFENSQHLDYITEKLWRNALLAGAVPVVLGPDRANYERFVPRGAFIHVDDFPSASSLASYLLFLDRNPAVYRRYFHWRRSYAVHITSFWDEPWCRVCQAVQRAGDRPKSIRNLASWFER
Description: Cell extracts containing 1% Triton X-100 were prepared from transfected COS-1 cells. Fucosyltransferase assays were performed in a total volume of 20 μl, and contained 50 mM sodium cacodylate, pH 6.2, 5 mM ATP, 10 mM fucose, 20 mM MnCl2, 3 μM GDP-^14C-fucose, and 5 μl (30 μg protein) of cell extract. Acceptor substrates were added to a final concentration of 20 mM. Reactions were incubated at 37° C. for 1 hour and terminated by addition of 20 μl ethanol, followed by addition of 600 μl of distilled water. An aliquot of each reaction (50 μl) was subjected to scintillation counting to determine total radioactivity in the reaction. Another aliquot (200 μl) was applied to a column containing 400 μl of Dowex IX2-400, formate form. The flow through fraction, and […] of a subsequent water elution, were collected and pooled, and an aliquot was subjected to scintillation counting to quantitate incorporation of radioactive fucose into neutral product. Descending paper chromatography was used to confirm the structure of the product formed with the acceptor N-acetyllactosamine. The neutral product in the Dowex column eluate was concentrated by lyophilization, resuspended in a small volume of water, and fractionated through Whatman No. 40 in phenol/isopropanol/formic acid/water (85:5:10:100, lower layer). After chromatography (40 hours), the air-dried chromatogram was cut into 1 cm strips and the strips eluted into 2 ml of water. Radioactivity in each eluate was determined by scintillation counting after mixing with 10 ml of scintillation cocktail.
Table 2 presents the relative product formation rates obtained with low molecular weight acceptor substrates using cell extracts containing recombinant human α(1,3)fucosyltransferases expressed in transfected COS-1 cells, as described in the preceding sections. Fucosyltransferase assays were performed as described in detail in Lowe et al, J. Biol. Chem., (1991), 266:17467-17477; Weston et al, J. Biol. Chem. (1992), 267:4152-4160; and Kukowska-Latallo et al, Genes. Devel., (1990), 4:1288-1303. For each enzyme, the same extract was used, with saturating amounts of each acceptor oligosaccharide (20 mM, except for 2′-fucosylactose which was used at 5 mM), and GDP-^14C]fucose was present at 3 μM. Reaction times and enzyme amounts were adjusted to ensure a linear rate of product formation (less than 15% of the GDP-fucose substrate consumed). Products were separated by column chromatography and quantitated by liquid scintillation counting, and their structures were confirmed by high performance liquid chromatography, as described in Lowe et al, J. Biol. Chem., (1991), 266:17467-17477; Weston et al, J. Biol. Chem. (1992), 267:4152-4160; and Kukowska-Latallo et al, Genes. Devel., (1990), 4:1288-1303.

[3] = test system: monoclonal anti-H antibody (BE2); test: Hapten inhibition of BE2 anti-H antibody binding to mH1-12 cells; set-up: species or system mouse; conditions: antibody preincubated with hapten, 20 mM
Description: as §1, §2

Relative Activity (%) with Fuc-TIV (Fuc-TIV) | fucosyltransferase activity with acceptor substrate (Fuc-TIV) | Compound | inhibition of ECA binding to L cells by hapten [1] | inhibition of anti-H antibody binding to mH1-12 cells by hapten [2] | fucose transfer to acceptor (Fuc-TIV) | inhibition of BE2 anti-H antibody binding to mH1-12 cells by hapten [3]
3% | 10 pmol/mg/h | OC[C@H]1O[C@@H](O[C@H]2[C@H](O)[C@@H](O)C(O)O[C@@H]2CO)[C@H](O)[C@@H](O)[C@H]1O (stereo partly shown) [lactose] | – | does not inhibit | – | –
<1% | – | CC(=O)NC1C(O)OC(CO)C(OC2OC(CO)C(O)C(OC3(C(=O)O)CC(O)C(NC(C)=O)C(C(O)C(O)CO)O3)C2O)C1O (stereo not drawn) [α(2,3)sialyllactosamine, NeuAcα(2→3)Galβ(1→4)GlcNAc] | – | – | less than 1 pmol/mg-h | –

Second part, the compound before the results:

Compound | Relative Activity (%) with Fuc-TIV (Fuc-TIV) | fucosyltransferase activity with acceptor substrate (Fuc-TIV) | inhibition of ECA binding to L cells by hapten [1] | inhibition of anti-H antibody binding to mH1-12 cells by hapten [2] | fucose transfer to acceptor (Fuc-TIV) | inhibition of BE2 anti-H antibody binding to mH1-12 cells by hapten [3]
CC(=O)N[C@H]1C(O)O[C@H](CO)[C@@H](O[C@@H]2O[C@H](CO)[C@H](O)[C@H](O)[C@H]2O)[C@@H]1O (stereo partly shown) [N-acetyllactosamine] | 100% | 296 pmol/mg/h | effectively inhibited | does not inhibit | 474 pmol/mg/h | –
Fucα(1,2)Galβ(1,4)Glc [2-fucosyllactose] | 6% | 17 pmol/mg/h | – | blocked | – | inhibition of binding
CC(=O)N[C@@H]1[C@@H](O[C@@H]2O[C@H](CO)[C@H](O)[C@H](O)[C@H]2O)[C@H](O)[C@@H](CO)O[C@@H]1O [lacto-N-biose I] | <1% | trace amount | – | – | – | –
